Assay results from patent US20100285959A1, “HERBICIDAL MIXTURES” (priority 2006, published 2010).

Legend:
giant ragweed (AMBTR) = assay: Test 25 field trial, postemergence, growth as percent of control; type: in vivo, Ambrosia trifida; conditions: 14 DAA
From the text: (§1) Corn seeds (hybrid ‘Pioneer 31G96 RR’) were planted in mid spring season, 3.8 cm deep in a clay loam soil having 2% organic matter and a pH of 6.6. Plots were 6.1 m long by 3.0 m wide with rows spaced 76 cm apart. Seeds were spaced 15 cm apart within the rows. The field was managed using conventional tillage practices. […] Giant ragweed and Pennsylvania smartweed could only be evaluated 14 days after application. […] Results are the means of the three replicates. This growth inhibition data was converted to results in the form of “plant growth as a percent of control plant growth” using the calculation “100 minus growth inhibition”.
(§2) When this form of Colby's Equation is used, if the observed effects on weeds are less than the expected values, the mixture is synergistic.

velvetleaf (ABUTH) [1] = assay: as above; type: in vivo, Abutilon theophrasti
From the text: as §1, §2

[2] = tested on: common lambsquarters (CHEAL); assay: Test 26 field trial, postemergence; type: in vivo, Chenopodium album; design: scale not given here
From the text: Corn seeds (hybrid ‘Pioneer 31G96’) were planted in mid spring season, 3.8 cm deep in a silt loam soil having 2% organic matter and a pH of 6.6. Plots were 6.1 m long by 3.0 m wide with rows spaced 76 cm apart. Seeds were spaced 15 cm apart within the rows. The field was managed using conventional tillage practices. […] All treatments also included a surfactant. […] Some of the weed species could not be evaluated at every timing. […] Results are the means of the three replicates.

velvetleaf (ABUTH) [3] = assay: Test 18 greenhouse, post- and preemergence; conditions: 15 DAA
corn (ZEAMD) [4] = assay: Test 25 field trial, postemergence, growth as percent of control; type: in vivo, Zea mays ssp. indentata; conditions: hybrid Pioneer 31G96 RR, Zea mays ssp. indentata (corn), in vivo
From the text: as §1, §2

dry-seeded rice (ORYSA) = assay: Test 28 greenhouse, postemergence; type: in vivo, Oryza sativa; conditions: 26 DAA
Experimental: A greenhouse test was conducted to evaluate the effects on the plant species corn (ZEAMD, Zea mays ssp. indentata), sorghum (SORVU, Sorghum vulgare L.), dry-seeded rice (ORYSA, Oryza sativa L.), wheat (TRZAW, Triticum aestivum L.), ivyleaf morningglory (IPOHE, Ipomoea hederacea (L.) JACQ.), and barnyardgrass (ECHCG, Echinochloa crus-galli (L.) P. BEAUV.), of mixtures of Compound 2 with isoxadifen-ethyl. Corn, sorghum, rice, wheat, ivyleaf morningglory and barnyardgrass seeds were planted in RediEarth, a commercial potting medium. […] Corn plants were treated postemergence at the V2 growth stage, and sorghum, rice, wheat, ivyleaf morningglory, and barnyardgrass plants were treated postemergence at the 3-leaf stage. […] Each treatment was replicated three times. […] Plants were watered as needed.

corn (ZEAMD) [5] = assay: Test 14 field trial, preemergence, growth as percent of control; type: in vivo, Zea mays ssp. indentata; conditions: 1870 g a.i./ha
From the text: Corn seeds (hybrid ‘Pioneer 31G96 RR’) were planted in mid spring season, 3.8 cm deep in a clay loam soil having 2% organic matter and a pH of 6.6. Plots were 6.1 m long by 3.0 m wide with rows spaced 76 cm apart. Seeds were spaced 15 cm apart within the rows. The field was managed using conventional tillage practices. […] Yellow nutsedge was only evaluated 19 and 28 days after application, and ivyleaf morningglory could only be evaluated 28 days after application. […] Results are the means of the three replicates. This growth inhibition data was converted to results in the form of “plant growth as a percent of control plant growth” using the calculation “100 minus growth inhibition”. […] For “growth as a percent of control” data, Colby's Equation calculates the expected additive effect of herbicidal mixtures having two active ingredients as follows:
Ga+b=GaGb/100 • wherein Ga+b is the growth as a percent of control of plants treated with the mixture expected from additive contribution of the individual components, • Ga is the observed growth as a percent of control of plants treated with the first active ingredient at the same use rate as in the mixture, and • Gb is the observed growth as a percent of control of plants treated with the second active ingredient at the same use rate as in the mixture. For mixtures having three active ingredients, Colby's Equation to calculate the expected additive effect of herbicidal mixtures is as follows:
Ga+b+c=GaGbGc/10,000 • wherein Ga and Gb are as defined above and • Ga+b+c is the growth as a percent of control of plants treated with the mixture expected from additive contribution of the individual components, and • Gc is the observed growth as a percent of control of plants treated with the third active ingredient at the same use rate as in the mixture. When these two forms of Colby's Equation are used, if the observed effects on weeds are less than the expected values, the mixture is synergistic.

COC(=O)c1nc(C2CC2)nc(N)c1Cl [Compound 2, methyl 6-amino-5-chloro-2-cyclopropyl-4-pyrimidinecarboxylate]
AMBTR Obs (percent of control) (giant ragweed (AMBTR); Cpd 2 30 g a.i./ha): 5%
AMBTR Obs (percent of control) (giant ragweed (AMBTR); Cpd 2 45 g a.i./ha): 0%
ABUTH Obs (percent of control) (velvetleaf (ABUTH) [1]; Cpd 2 15 g a.i./ha, 14 DAA): 70%
ABUTH Obs (percent of control) (velvetleaf (ABUTH) [1]; Cpd 2 15 g a.i./ha, 28 DAA): 72%
ABUTH Obs (percent of control) (velvetleaf (ABUTH) [1]; Cpd 2 15 g a.i./ha, 56 DAA): 62%
ABUTH Obs (percent of control) (velvetleaf (ABUTH) [1]; Cpd 2 30 g a.i./ha, 14 DAA): 45%
ABUTH Obs (percent of control) (velvetleaf (ABUTH) [1]; Cpd 2 30 g a.i./ha, 28 DAA): 53%
ABUTH Obs (percent of control) (velvetleaf (ABUTH) [1]; Cpd 2 30 g a.i./ha, 56 DAA): 28%
ABUTH Obs (percent of control) (velvetleaf (ABUTH) [1]; Cpd 2 45 g a.i./ha, 14 DAA): 37%
ABUTH Obs (percent of control) (velvetleaf (ABUTH) [1]; Cpd 2 45 g a.i./ha, 28 DAA): 40%
ABUTH Obs (percent of control) (velvetleaf (ABUTH) [1]; Cpd 2 45 g a.i./ha, 56 DAA): 20%
CHEAL Obs ([2]; 14 DAA, 30 g a.i./ha): 88
CHEAL Obs ([2]; 14 DAA, 45 g a.i./ha): 63
CHEAL Obs ([2]; 14 DAA, 60 g a.i./ha): 100
CHEAL Obs ([2]; 28 DAA, 30 g a.i./ha): 100
CHEAL Obs ([2]; 28 DAA, 45 g a.i./ha): 100
CHEAL Obs ([2]; 28 DAA, 60 g a.i./ha): 100
CHEAL Obs ([2]; 56 DAA, 30 g a.i./ha): 100
CHEAL Obs ([2]; 56 DAA, 45 g a.i./ha): 100
CHEAL Obs ([2]; 56 DAA, 60 g a.i./ha): 100
Postemergence ABUTH Obs (velvetleaf (ABUTH) [3]; alone at 15 g a.i./ha): 39
Preemergence ABUTH Obs (velvetleaf (ABUTH) [3]; alone at 15 g a.i./ha): 16
Postemergence ABUTH Obs (velvetleaf (ABUTH) [3]; alone at 30 g a.i./ha): 58
Preemergence ABUTH Obs (velvetleaf (ABUTH) [3]; alone at 30 g a.i./ha): 26
Postemergence ABUTH Obs (velvetleaf (ABUTH) [3]; alone at 45 g a.i./ha): 67
Preemergence ABUTH Obs (velvetleaf (ABUTH) [3]; alone at 45 g a.i./ha): 28
ZEAMD Obs (percent of control) (corn (ZEAMD) [4]; 14 days after application): 100%
ZEAMD Obs (percent of control) (corn (ZEAMD) [4]; 56 days after application): 100%
ORYSA Obs (dry-seeded rice (ORYSA); Cpd 2 32 g a.i./ha): 60
ORYSA Obs (dry-seeded rice (ORYSA); Cpd 2 64 g a.i./ha): 83

CCc1cccc(C)c1N(C(=O)CCl)[C@@H](C)COC [S-Metolachlor, S-metolachlor, reference compound]
Obs growth % of control (corn (ZEAMD) [5]; 19 DAA): 98%
Obs growth % of control (corn (ZEAMD) [5]; 28 DAA): 98%
Obs growth % of control (corn (ZEAMD) [5]; 56 DAA): 100%
